Measured values published in the kinase profiling compilation of Christmann-Franck et al. (2016).

What was measured:
Assay in all cases: radiometric filter-binding kinase assay, Kinase HotSpot
Conditions in all cases: compound 0.5 µM; ATP 10 µM
AURKA (human) = AURKA (human) (UniProt O14965)
AURKB (human) = AURKB (human) (UniProt Q96GD4)
CAMK2G (human) = CAMK2G (human) (UniProt Q13555)
CLK4 (human) = CLK4 (human) (UniProt Q9HAZ1)
DAPK3 (human) = DAPK3 (human) (UniProt O43293)
EPHB1 (human) = EPHB1 (human) (UniProt P54762)
Sequence of EPHB1 (human) (P54762 whole entry, looked up): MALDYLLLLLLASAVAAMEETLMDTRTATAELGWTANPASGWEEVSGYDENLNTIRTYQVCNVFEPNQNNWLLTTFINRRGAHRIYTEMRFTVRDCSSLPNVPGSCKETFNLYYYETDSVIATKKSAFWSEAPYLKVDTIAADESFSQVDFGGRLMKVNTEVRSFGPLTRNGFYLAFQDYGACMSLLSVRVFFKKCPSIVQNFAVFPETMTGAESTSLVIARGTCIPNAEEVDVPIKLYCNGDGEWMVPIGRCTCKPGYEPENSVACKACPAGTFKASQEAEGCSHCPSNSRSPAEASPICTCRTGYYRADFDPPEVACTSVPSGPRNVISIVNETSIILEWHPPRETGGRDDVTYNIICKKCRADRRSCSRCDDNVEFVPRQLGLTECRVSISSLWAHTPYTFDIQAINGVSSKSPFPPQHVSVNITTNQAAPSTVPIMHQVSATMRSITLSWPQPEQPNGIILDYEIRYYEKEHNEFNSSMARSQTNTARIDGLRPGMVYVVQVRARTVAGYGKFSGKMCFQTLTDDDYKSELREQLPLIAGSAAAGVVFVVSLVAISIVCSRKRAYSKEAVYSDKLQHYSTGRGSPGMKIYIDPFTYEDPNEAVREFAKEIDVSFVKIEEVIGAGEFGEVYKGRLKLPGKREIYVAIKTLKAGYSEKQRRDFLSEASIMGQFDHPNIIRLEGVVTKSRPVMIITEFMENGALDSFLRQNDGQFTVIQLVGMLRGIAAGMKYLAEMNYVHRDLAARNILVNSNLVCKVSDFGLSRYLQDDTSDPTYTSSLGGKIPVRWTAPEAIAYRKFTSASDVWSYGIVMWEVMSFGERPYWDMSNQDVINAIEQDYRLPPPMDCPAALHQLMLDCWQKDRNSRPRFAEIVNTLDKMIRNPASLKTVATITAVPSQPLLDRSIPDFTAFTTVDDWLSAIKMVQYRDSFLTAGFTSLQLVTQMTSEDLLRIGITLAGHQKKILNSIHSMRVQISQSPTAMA

ERBB4 (human) = ERBB4 (human) (UniProt Q15303)
FGFR2 (human) = FGFR2 (human) (UniProt P21802)
FGFR3 (human) = FGFR3 (human) (UniProt P22607)
FLT3 (human) = FLT3 (human) (UniProt P36888)
FRK (human) = FRK (human) (UniProt P42685)
GRK4 (human) = GRK4 (human) (UniProt P32298)
Sequence of GRK4 (human) (P32298 whole entry, looked up): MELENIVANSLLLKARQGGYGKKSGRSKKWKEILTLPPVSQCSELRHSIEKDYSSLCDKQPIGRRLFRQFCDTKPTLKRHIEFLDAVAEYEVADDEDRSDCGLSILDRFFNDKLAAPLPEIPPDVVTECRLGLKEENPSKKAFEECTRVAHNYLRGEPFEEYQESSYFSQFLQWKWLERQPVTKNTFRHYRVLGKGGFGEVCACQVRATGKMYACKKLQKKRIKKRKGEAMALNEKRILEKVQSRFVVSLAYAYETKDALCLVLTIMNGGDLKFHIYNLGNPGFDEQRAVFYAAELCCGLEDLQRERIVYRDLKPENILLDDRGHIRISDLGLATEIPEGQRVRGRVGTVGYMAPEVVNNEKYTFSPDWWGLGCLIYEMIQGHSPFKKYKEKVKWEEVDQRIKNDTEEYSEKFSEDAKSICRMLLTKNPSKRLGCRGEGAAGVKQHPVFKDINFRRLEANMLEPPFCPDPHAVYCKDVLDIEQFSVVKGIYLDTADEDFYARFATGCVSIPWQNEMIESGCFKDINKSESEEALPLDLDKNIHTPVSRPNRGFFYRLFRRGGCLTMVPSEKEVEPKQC

GRK7 (human) = GRK7 (human) (UniProt Q8WTQ7)
GSK3B (human) = GSK3B (human) (UniProt P49841)
Sequence of GSK3B (human) (P49841 whole entry, looked up): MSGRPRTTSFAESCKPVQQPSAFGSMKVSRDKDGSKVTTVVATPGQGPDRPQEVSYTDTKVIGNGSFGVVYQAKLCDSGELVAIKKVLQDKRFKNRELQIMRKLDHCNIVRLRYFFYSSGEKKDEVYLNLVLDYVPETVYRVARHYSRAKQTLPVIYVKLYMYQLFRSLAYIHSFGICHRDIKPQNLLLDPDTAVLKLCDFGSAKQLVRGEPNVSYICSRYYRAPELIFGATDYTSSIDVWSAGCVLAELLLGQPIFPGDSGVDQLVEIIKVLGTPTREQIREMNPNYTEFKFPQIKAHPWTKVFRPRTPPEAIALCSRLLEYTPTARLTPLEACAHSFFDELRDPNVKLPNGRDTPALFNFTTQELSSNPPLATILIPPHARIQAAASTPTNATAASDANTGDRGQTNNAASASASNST

INSRR (human) = INSRR (human) (UniProt P14616)
IRAK1 (human) = IRAK1 (human) (UniProt P51617)
JAK3 JH1 JH2 (human) = JAK3 JH1 JH2 (human) (UniProt P52333)
MAP3K9 (human) = MAP3K9 (human) (UniProt P80192)
MAPK10 (human) = MAPK10 (human) (UniProt P53779)
MAPK13 (human) = MAPK13 (human) (UniProt O15264)
Sequence of MAPK13 (human) (O15264 whole entry, looked up): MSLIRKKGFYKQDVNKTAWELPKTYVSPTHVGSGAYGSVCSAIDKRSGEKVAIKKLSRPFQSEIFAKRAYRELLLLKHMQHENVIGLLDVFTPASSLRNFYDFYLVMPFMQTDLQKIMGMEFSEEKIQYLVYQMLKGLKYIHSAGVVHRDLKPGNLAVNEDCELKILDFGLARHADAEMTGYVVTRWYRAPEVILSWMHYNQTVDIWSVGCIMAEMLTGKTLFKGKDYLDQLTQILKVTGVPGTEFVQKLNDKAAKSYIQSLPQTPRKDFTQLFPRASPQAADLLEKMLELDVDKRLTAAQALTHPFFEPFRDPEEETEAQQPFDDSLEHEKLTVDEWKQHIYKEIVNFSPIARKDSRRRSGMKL

MAPK14 (human) = MAPK14 (human) (UniProt Q16539)
Sequence of MAPK14 (human) (Q16539 whole entry, looked up): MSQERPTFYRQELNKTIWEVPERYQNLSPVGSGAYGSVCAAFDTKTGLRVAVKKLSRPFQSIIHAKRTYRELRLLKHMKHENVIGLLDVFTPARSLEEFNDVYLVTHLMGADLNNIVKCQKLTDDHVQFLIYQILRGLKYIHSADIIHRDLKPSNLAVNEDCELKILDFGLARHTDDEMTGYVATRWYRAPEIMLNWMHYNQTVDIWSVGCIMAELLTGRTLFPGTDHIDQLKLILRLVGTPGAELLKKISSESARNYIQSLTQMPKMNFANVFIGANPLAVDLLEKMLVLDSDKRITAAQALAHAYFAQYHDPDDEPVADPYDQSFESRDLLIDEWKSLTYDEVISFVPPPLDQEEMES

MAPK3 (human) = MAPK3 (human) (UniProt P27361)
MARK1 (human) = MARK1 (human) (UniProt Q9P0L2)
MARK2 (human) = MARK2 (human) (UniProt Q7KZI7)
Sequence of MARK2 (human) (Q7KZI7 whole entry, looked up): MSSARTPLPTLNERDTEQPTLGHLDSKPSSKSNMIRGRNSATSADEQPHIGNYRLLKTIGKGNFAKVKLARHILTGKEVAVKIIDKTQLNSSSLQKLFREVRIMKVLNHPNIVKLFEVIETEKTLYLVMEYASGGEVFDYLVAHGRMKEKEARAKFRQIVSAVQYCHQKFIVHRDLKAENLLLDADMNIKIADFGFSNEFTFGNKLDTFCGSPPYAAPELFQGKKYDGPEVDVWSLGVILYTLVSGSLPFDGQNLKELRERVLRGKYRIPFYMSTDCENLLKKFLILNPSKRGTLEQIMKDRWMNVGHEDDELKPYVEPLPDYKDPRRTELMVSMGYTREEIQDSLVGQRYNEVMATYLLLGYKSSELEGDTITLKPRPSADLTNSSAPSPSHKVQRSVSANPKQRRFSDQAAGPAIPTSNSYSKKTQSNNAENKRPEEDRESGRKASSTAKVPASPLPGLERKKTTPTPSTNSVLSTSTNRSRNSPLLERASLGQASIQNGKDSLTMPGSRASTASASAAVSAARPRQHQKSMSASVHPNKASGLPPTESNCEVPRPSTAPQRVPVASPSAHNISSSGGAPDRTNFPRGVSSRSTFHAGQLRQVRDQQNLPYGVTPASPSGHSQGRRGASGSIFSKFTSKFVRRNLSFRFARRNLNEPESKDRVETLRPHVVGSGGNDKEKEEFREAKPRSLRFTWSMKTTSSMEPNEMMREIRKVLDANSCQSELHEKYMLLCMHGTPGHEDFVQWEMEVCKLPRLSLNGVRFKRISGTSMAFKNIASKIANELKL

MARK3 (human) = MARK3 (human) (UniProt P27448)
MYLK2 (human) = MYLK2 (human) (UniProt Q9H1R3)
PAK6 (human) = PAK6 (human) (UniProt Q9NQU5)
PHKG1 (human) = PHKG1 (human) (UniProt Q16816)
PHKG2 (human) = PHKG2 (human) (UniProt P15735)
Sequence of PHKG2 (human) (P15735 whole entry, looked up): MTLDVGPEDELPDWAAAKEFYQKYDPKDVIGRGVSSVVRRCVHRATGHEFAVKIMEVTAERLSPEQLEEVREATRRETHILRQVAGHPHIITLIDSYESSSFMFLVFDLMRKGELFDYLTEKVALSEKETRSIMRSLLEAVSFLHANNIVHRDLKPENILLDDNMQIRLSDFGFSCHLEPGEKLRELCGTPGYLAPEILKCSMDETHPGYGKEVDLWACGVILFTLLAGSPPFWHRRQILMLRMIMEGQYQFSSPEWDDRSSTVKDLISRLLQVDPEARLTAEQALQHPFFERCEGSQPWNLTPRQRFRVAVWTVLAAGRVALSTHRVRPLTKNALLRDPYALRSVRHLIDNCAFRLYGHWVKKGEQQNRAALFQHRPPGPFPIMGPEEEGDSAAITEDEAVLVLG

PIM2 (human) = PIM2 (human) (UniProt Q9P1W9)
Sequence of PIM2 (human) (Q9P1W9 whole entry, looked up): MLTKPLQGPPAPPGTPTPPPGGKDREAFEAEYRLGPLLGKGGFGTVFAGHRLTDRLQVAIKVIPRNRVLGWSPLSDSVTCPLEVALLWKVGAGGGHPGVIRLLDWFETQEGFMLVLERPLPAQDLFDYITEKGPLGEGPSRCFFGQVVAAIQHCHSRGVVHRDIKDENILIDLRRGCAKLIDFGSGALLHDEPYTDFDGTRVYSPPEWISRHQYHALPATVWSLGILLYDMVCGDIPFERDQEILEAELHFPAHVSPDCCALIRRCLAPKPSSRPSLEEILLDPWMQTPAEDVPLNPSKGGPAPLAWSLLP

PKN1 (human) = PKN1 (human) (UniProt Q16512)
PLK3 (human) = PLK3 (human) (UniProt Q9H4B4)
PNCK (human) = PNCK (human) (UniProt Q6P2M8)
PRKCB1 (human) = PRKCB1 (human) (UniProt P05771)
PRKCG (human) = PRKCG (human) (UniProt P05129)
PRKCZ (human) = PRKCZ (human) (UniProt Q05513)
PTK2 (human) = PTK2 (human) (UniProt Q05397)
RPS6KA5 KD2 (human) = RPS6KA5 KD2 (human) (UniProt O75582)
Sequence of RPS6KA5 KD2 (human) (O75582 whole entry, looked up): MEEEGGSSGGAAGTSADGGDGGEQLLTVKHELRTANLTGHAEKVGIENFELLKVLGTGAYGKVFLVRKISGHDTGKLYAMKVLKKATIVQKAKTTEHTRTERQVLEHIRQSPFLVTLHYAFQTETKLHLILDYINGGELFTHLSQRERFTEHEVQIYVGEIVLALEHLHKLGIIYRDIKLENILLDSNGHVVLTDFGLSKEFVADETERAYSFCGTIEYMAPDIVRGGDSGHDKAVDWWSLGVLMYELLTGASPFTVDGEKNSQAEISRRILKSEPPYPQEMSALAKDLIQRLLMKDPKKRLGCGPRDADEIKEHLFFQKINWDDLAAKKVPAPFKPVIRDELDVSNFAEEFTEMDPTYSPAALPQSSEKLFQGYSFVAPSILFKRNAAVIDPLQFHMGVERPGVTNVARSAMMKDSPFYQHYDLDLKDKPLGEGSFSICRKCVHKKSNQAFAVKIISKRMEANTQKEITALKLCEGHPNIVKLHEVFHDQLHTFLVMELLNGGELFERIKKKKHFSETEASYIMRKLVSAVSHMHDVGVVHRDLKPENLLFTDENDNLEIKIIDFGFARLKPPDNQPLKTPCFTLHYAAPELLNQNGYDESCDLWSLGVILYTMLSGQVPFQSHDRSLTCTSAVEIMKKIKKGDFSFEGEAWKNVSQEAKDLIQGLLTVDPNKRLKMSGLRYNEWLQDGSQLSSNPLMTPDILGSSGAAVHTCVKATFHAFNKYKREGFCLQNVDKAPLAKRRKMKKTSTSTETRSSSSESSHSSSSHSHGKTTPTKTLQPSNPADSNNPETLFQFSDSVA

SIK2 (human) = SIK2 (human) (UniProt Q9H0K1)
ULK1 (human) = ULK1 (human) (UniProt O75385)
WEE1 (human) = WEE1 (human) (UniProt P30291)
WNK3 (human) = WNK3 (human) (UniProt Q9BYP7)

`Cc1nc2cc3nc(-c4cccs4)cnc3cc2n1C` gave a residual activity (AURKA (human)) of 84.8%, a residual activity (AURKB (human)) of 84.9% and a residual activity (CAMK2G (human)) of 101%. The residual activity (CLK4 (human)) was 79.2%, the residual activity (DAPK3 (human)) was 102% and the residual activity (EPHB1 (human)) was 107%. For the same compound, the residual activity (ERBB4 (human)) was 95%, the residual activity (FGFR2 (human)) was 91.8% and the residual activity (FGFR3 (human)) was 67.1%. It also gave a residual activity (FLT3 (human)) of 27.5%, a residual activity (FRK (human)) of 98.9% and a residual activity (GRK4 (human)) of 104%. The residual activity (GRK7 (human)) was 96.6%, the residual activity (GSK3B (human)) was 109% and the residual activity (INSRR (human)) was 99.5%. For the same compound, the residual activity (IRAK1 (human)) was 113%, the residual activity (JAK3 JH1 JH2 (human)) was 107% and the residual activity (MAP3K9 (human)) was 90.3%. For the same compound, the residual activity (MAPK10 (human)) was 96.3%, the residual activity (MAPK13 (human)) was 99.7% and the residual activity (MAPK14 (human)) was 97.5%. The residual activity (MAPK3 (human)) was 117%, the residual activity (MARK1 (human)) was 102% and the residual activity (MARK2 (human)) was 81.4%. The residual activity (MARK3 (human)) was 105%, the residual activity (MYLK2 (human)) was 74.5% and the residual activity (PAK6 (human)) was 96.6%. It also gave a residual activity (PHKG1 (human)) of 98.2%, a residual activity (PHKG2 (human)) of 102% and a residual activity (PIM2 (human)) of 114%. It also gave a residual activity (PKN1 (human)) of 96.5%, a residual activity (PLK3 (human)) of 95.6% and a residual activity (PNCK (human)) of 102%. The residual activity (PRKCB1 (human)) was 107%, the residual activity (PRKCG (human)) was 94.9% and the residual activity (PRKCZ (human)) was 95.6%. It also gave a residual activity (PTK2 (human)) of 117%, a residual activity (RPS6KA5 KD2 (human)) of 109% and a residual activity (SIK2 (human)) of 112%. The residual activity (ULK1 (human)) was 84.6%, the residual activity (WEE1 (human)) was 86.9% and the residual activity (WNK3 (human)) was 96.9%.

`O=C(CCCc1ccc(-c2ccccc2F)cc1)Nc1ccc(O)cc1` showed a residual activity (AURKA (human)) of 104%, a residual activity (AURKB (human)) of 106% and a residual activity (CAMK2G (human)) of 109%. The residual activity (CLK4 (human)) was 103%, the residual activity (DAPK3 (human)) was 104% and the residual activity (EPHB1 (human)) was 96.4%. For the same compound, the residual activity (ERBB4 (human)) was 107%, the residual activity (FGFR2 (human)) was 102% and the residual activity (FGFR3 (human)) was 103%. The residual activity (FLT3 (human)) was 104%, the residual activity (FRK (human)) was 91.9% and the residual activity (GRK4 (human)) was 96.8%. It also gave a residual activity (GRK7 (human)) of 109%, a residual activity (GSK3B (human)) of 99.4% and a residual activity (INSRR (human)) of 92.7%. It also gave a residual activity (IRAK1 (human)) of 100%, a residual activity (JAK3 JH1 JH2 (human)) of 92.1% and a residual activity (MAP3K9 (human)) of 100%. The residual activity (MAPK10 (human)) was 100%, the residual activity (MAPK13 (human)) was 103% and the residual activity (MAPK14 (human)) was 89%. It also gave a residual activity (MAPK3 (human)) of 132%, a residual activity (MARK1 (human)) of 96.7% and a residual activity (MARK2 (human)) of 91.5%. The residual activity (MARK3 (human)) was 101%, the residual activity (MYLK2 (human)) was 97.8% and the residual activity (PAK6 (human)) was 108%. It also gave a residual activity (PHKG1 (human)) of 89.1%, a residual activity (PHKG2 (human)) of 102% and a residual activity (PIM2 (human)) of 115%. For the same compound, the residual activity (PKN1 (human)) was 105%, the residual activity (PLK3 (human)) was 95% and the residual activity (PNCK (human)) was 102%. The residual activity (PRKCB1 (human)) was 93.4%, the residual activity (PRKCG (human)) was 98% and the residual activity (PRKCZ (human)) was 116%. For the same compound, the residual activity (PTK2 (human)) was 102%, the residual activity (RPS6KA5 KD2 (human)) was 95.2% and the residual activity (SIK2 (human)) was 102%. The residual activity (ULK1 (human)) was 106%, the residual activity (WEE1 (human)) was 83.7% and the residual activity (WNK3 (human)) was 109%.

`CCN(CC)CCCCN1c2ccccc2Oc2ccc(Cl)cc21` was tested, and the residual activity (AURKA (human)) was 93.3%, the residual activity (AURKB (human)) was 94.1% and the residual activity (CAMK2G (human)) was 104%. The residual activity (CLK4 (human)) was 97%, the residual activity (DAPK3 (human)) was 106% and the residual activity (EPHB1 (human)) was 110%. It also gave a residual activity (ERBB4 (human)) of 102%, a residual activity (FGFR2 (human)) of 95.7% and a residual activity (FGFR3 (human)) of 91.8%. The residual activity (FLT3 (human)) was 99%, the residual activity (FRK (human)) was 98.4% and the residual activity (GRK4 (human)) was 102%. The residual activity (GRK7 (human)) was 96.2%, the residual activity (GSK3B (human)) was 113% and the residual activity (INSRR (human)) was 102%. For the same compound, the residual activity (IRAK1 (human)) was 118%, the residual activity (JAK3 JH1 JH2 (human)) was 106% and the residual activity (MAP3K9 (human)) was 95.7%. For the same compound, the residual activity (MAPK10 (human)) was 104%, the residual activity (MAPK13 (human)) was 94.3% and the residual activity (MAPK14 (human)) was 95.8%. For the same compound, the residual activity (MAPK3 (human)) was 111%, the residual activity (MARK1 (human)) was 100% and the residual activity (MARK2 (human)) was 86.1%. The residual activity (MARK3 (human)) was 102%, the residual activity (MYLK2 (human)) was 104% and the residual activity (PAK6 (human)) was 102%. It also gave a residual activity (PHKG1 (human)) of 96.5%, a residual activity (PHKG2 (human)) of 110% and a residual activity (PIM2 (human)) of 109%. For the same compound, the residual activity (PKN1 (human)) was 89.6%, the residual activity (PLK3 (human)) was 102% and the residual activity (PNCK (human)) was 107%. It also gave a residual activity (PRKCB1 (human)) of 101%, a residual activity (PRKCG (human)) of 91.1% and a residual activity (PRKCZ (human)) of 105%. For the same compound, the residual activity (PTK2 (human)) was 108%, the residual activity (RPS6KA5 KD2 (human)) was 107% and the residual activity (SIK2 (human)) was 111%. It also gave a residual activity (ULK1 (human)) of 99.8%, a residual activity (WEE1 (human)) of 92.7% and a residual activity (WNK3 (human)) of 108%.
